The source of these data is ChEMBL document CHEMBL1157539, “Thousands of chemical starting points for antimalarial lead identification” (Nature, 2010).

Molecules are shown by their SMILES.

This test deals with Plasmodium falciparum. The test is described as follows: GSK_TCMDC: Inhibition of Plasmodium falciparum 3D7 in whole erythrocytes, using parasite LDH activity as an index of growth. In kind it is functional, organism-based. The note with it: Plasmodium falciparum, 3D7.
For the molecule `COc1ccc2nccc(N/N=C/c3ccccc3[N+](=O)[O-])c2c1`, the XC50 is 0.0659 µM.

Take `CCOc1ccc2nc(C)cc(N/N=C/c3ccccc3[N+](=O)[O-])c2c1`: the XC50 is 0.0296 µM. Then `COc1ccc2nc(C)cc(N/N=C/c3ccccc3[N+](=O)[O-])c2c1`, with 0.177 µM; and `COc1cc(C(=O)NCCCN2CCN(c3cccc(Cl)c3)CC2)ccc1-c1nc2cc(Cl)c(F)cc2[nH]1`, with 1.02 µM. In the case of `COc1cc(C)nc2ccc(NC(=O)c3cc([N+](=O)[O-])cc([N+](=O)[O-])c3)cc12` it was 0.385 µM; in that of `Cc1cc(NC(=O)c2ccc(S(=O)(=O)N(Cc3ccccc3)C(C)C)cc2)no1`, 0.847 µM. In the case of `CN(CC(=O)Nc1cc(C(F)(F)F)ccc1-n1cncn1)Cc1ccc2ccccc2c1` it was 0.232 µM. Molecule `NCC1CCCN1Cc1cccc(-c2ccc(-c3nc4cc(C(F)(F)F)ccc4[nH]3)s2)c1` (stereo not drawn) displayed an XC50 of 0.748 µM. In the case of `COc1ccc2c(=NN=Cc3ccc(F)cc3)cc(C)[nH]c2c1` it was 0.773 µM; in that of `COC(=O)c1ccc(CC(C)NCC(O)c2cccc(Oc3cccc(C(F)(F)F)c3)c2)cc1` (stereo not drawn), 1.17 µM.

With `CC(C)(C)OC(=O)N1CCN(c2ccccc2NC(=O)c2cccc(C(F)(F)F)c2Oc2ccc(F)cc2)CC1`, the XC50 was 0.857 µM. In the case of `Cc1cc(N[C@@H](Cc2ccccc2)C(=O)NCc2cccs2)nc(NCCc2cccnc2)n1` it was 1.01 µM; in that of `FC(F)(F)c1ccc(Nc2nnnc3ccccc23)cc1`, 0.692 µM; in that of `CCCCN(CCCC)Cc1cc2ccccc2cc1O`, 0.348 µM. In the case of `COc1cc(C=NNc2ccnc3cc(Cl)ccc23)ccc1O` it was 0.134 µM. Then `OCc1ccc(-c2cncc(Nc3ccc(F)c(Cl)c3)c2)cc1`, with 0.0886 µM. `O=C(NCC1CCN(Cc2cccc(F)c2)C1)c1cc(-c2cccc(C(F)(F)F)c2)cs1` (stereo not drawn): the XC50 worked out at 0.992 µM. For the molecule `Cc1ccccc1C1CCN(c2ccc(NC(=O)c3ccc(Cl)nc3)cc2)CC1`, the XC50 was 1.03 µM.

In turn, `O=C(Nc1ccc(Cl)cc1)c1ccc(CN2CCCN(Cc3ccsc3)CC2)cc1` came in with an XC50 of 0.862 µM. With `CC(C)(C)C1CCc2nc(N)nc(N)c2C1` (stereo not drawn), the XC50 turned out to be 0.0126 µM. Then `O=C(CC1CCCCC1)NCC(NCCCNc1cc(=O)c2ccccc2[nH]1)c1cc(Br)cc(Br)c1` (stereo not drawn), with 1.05 µM; and `CC(=O)Nc1cccc(NC(=O)CSc2ccc(-c3nc4ccccc4[nH]3)cn2)c1`, with 0.559 µM; and `Cc1cccc(CN2CCC(Oc3ccc(NC(=O)c4cccs4)cc3Cl)CC2)n1`, with 0.844 µM. In the case of `CN1C(=O)OC[C@@H]1Cc1ccc2[nH]cc(C3=CCN(Cc4ccccc4)CC3)c2c1` it was 0.417 µM; in that of `Cn1cncc1C(=O)Nc1ccc(-c2ccc(-c3nc4cc(C(F)(F)F)ccc4[nH]3)cc2)cc1`, 0.56 µM; in that of `COc1cc(C2Nc3ccc4ccccc4c3C3=C2C(=O)CC(C)(C)C3)ccc1Oc1ccc([N+](=O)[O-])cc1C#N` (stereo not drawn), 0.662 µM. Then `CC(Cc1ccc(C2=CCNCC2)cc1)NCC(O)c1cccc(C(F)(F)F)c1` (stereo not drawn), with 1.57 µM; and `CCCOc1cc2c(cc1OCCC)C(C=Cc1ccc(Cl)cc1Cl)=NC(C)C2` (stereo not drawn), with 0.37 µM. In the case of `O=C(CCc1c[nH]cn1)Nc1ccc(-c2ccc(-c3nc4ccccc4[nH]3)cc2)cc1`, the XC50 turned out to be 0.705 µM. Then `CCc1cn2c3c(cc(C(=O)N[C@@H](Cc4ccccc4)[C@H](O)CNCc4cccc(C)c4)cc13)N(C)S(=O)(=O)CC2`, with 0.246 µM. In the case of `Cc1cccn2c(=O)c3cc(C(=O)NC(C)c4ccccc4)c(=N)n(CCc4ccccc4)c3nc12` (stereo not drawn) it was 0.554 µM; in that of `OC(CNC1CCCCCCC1)c1ccc(Cl)c(Cl)c1` (stereo not drawn), 0.205 µM. `CCN(CCCN1CCCCC1)c1cc(C)nc(Nc2ccc(C)c(Br)c2)n1` registered an XC50 of 0.248 µM. In the case of `O=C(Nc1ccccc1Cl)N(Cc1cc(Cl)cc(Cl)c1)CC(O)COc1ccc(Cl)c(F)c1` (stereo not drawn) it was 0.788 µM. `COc1cccc2c(O)c(CNC3CCCCC3)ccc12`: the XC50 was found to be 0.63 µM. Then `O=[N+]([O-])c1cccc(CNC2CCN(Cc3ccc4ccccc4c3)CC2)c1`, with 0.764 µM. In the case of `COc1ccc(N2CCN(CCCCNCc3ccc(NC(=O)c4cc(Cl)cc(Cl)c4)cc3)CC2)c(OC)c1` it was 0.253 µM; in that of `Fc1ccc2[nH]c(-c3cccc(-c4ccc(CNCCc5ccncc5)cc4)c3)nc2c1`, 0.115 µM. In the case of `CCOc1ccc(-c2nonc2NC(=O)c2ccccc2)cc1OCC` it was 0.257 µM; in that of `CCN(CC)CCCC(C)Nc1c2ccc(Cl)cc2nc2ccc(OC)cc12` (stereo not drawn), 0.0441 µM; in that of `CCN1CCC(NCc2ccc(-c3ccc(Cl)s3)cc2)CC1`, 0.939 µM. In the case of `Cc1n[nH]c2ccc(-c3cc(OC[C@@H](N)Cc4ccccc4)cnc3-c3ccccc3OCc3cccc(F)c3)cc12`, the XC50 is 1.22 µM.

For `c1ccc(Oc2ccc(Nc3ccnc(Nc4ccc(OCCN5CCCCC5)cc4)n3)cc2)cc1`, the XC50 is 0.604 µM. As to `OC1CCCN(Cc2ccc(-c3ccc(-c4nc5ccccc5[nH]4)cc3)cc2)C1` (stereo not drawn), the XC50 was determined as 0.838 µM. In the case of `O=C(Nc1cc(C(F)(F)F)ccc1N1CCOCC1)C(Cl)(Cl)Cl` it was 0.373 µM; in that of `Cc1ccc(-c2cc(C(=O)Nc3ccc(S(=O)(=O)N4CCCCC4C)cc3)n[nH]2)c(O)c1` (stereo not drawn), 1.08 µM. Then `CN1CCN(Cc2cccc(-c3ccc4c(Nc5ccc(Oc6ccccc6)cc5)ccnc4c3)c2)CC1`, with 0.226 µM; and `CCOc1cc(C)ccc1C1CCN(CCCCNC(=O)c2cnc(-c3ccc(C(F)(F)F)cc3)[nH]2)CC1`, with 0.771 µM. Then `O=C(/C=C/c1ccc(Cl)cc1)NCCCCCN1CCCN(C(=O)Nc2ccc(Cl)c(C(F)(F)F)c2)CC1`, with 0.91 µM; and `Cc1cc2c(cc1C(F)(F)F)N(C(=O)Nc1cc(C(=O)NC3CCN(Cc4ccccc4)C3)cc(C(F)(F)F)c1)CC2` (stereo not drawn), with 0.339 µM; and `O=C(Cc1ccccn1)Nc1cccc(-c2cccc(-c3nc4cc(C(F)(F)F)ccc4[nH]3)c2)c1`, with 0.61 µM. The molecule `C=CCOC(=O)N1CCC(CNCc2ccc(-c3ccc(-c4nc5ccccc5[nH]4)s3)cc2)C1` (stereo not drawn) showed an XC50 of 0.229 µM. Then `CCOC(=O)CCCc1cc(NC2CCN(C)CC2)nc(Nc2ccc(OC)cc2)n1`, with 0.704 µM; and `CC(C)c1ccc(CN2CCCCC(NC(=O)c3cc(-c4ccccc4F)cs3)C2)cc1` (stereo not drawn), with 0.672 µM; and `COc1cccc(CCc2cccc(CNC(C)=O)c2)c1`, with 1.04 µM. In the case of `N#Cc1ccc(N/C(=N\c2ccc(-c3ccccc3)cc2)NC2CCCc3ccccc32)c(O)c1` (stereo not drawn) it was 0.776 µM; in that of `Cc1cc(=NN=Cc2cccc(Cl)c2)c2cc(F)ccc2[nH]1`, 0.759 µM. For `COc1ccc(C(=O)C2CC2CN(C)CCC(O)c2ccc(Cl)c(Cl)c2)cc1` (stereo not drawn), the XC50 came out at 0.873 µM.

For the molecule `CN(c1ccccc1)S(=O)(=O)c1cccc(NC(=O)c2ccc(-n3ccnc3)c([N+](=O)[O-])c2)c1`, the XC50 stood at 1.13 µM. Then `Cc1ccc(CN2CCN(Cc3cccc(NC(=O)c4cccs4)c3)CC2)cc1C`, with 1.03 µM. Then `Cc1cc(N[C@@H](Cc2ccccc2)C(=O)NCc2cccc(F)c2)nc(NCCCOC(C)C)n1`, with 0.92 µM; and `CCN(CC)CCn1c2ccccc2c2ccc(C(=O)Nc3ccc4sc(C)nc4c3)cc21`, with 1.06 µM; and `C=C(C)Cn1cc(C2CCN(CCCCNC(=O)c3sc(-c4ccc(Cl)cc4Cl)nc3CO)CC2)c2ccccc21`, with 1.15 µM. In the case of `CN(C)CCOc1cc(NC(=O)Nc2ccc(Oc3ccccc3)cc2)ccc1I` it was 0.89 µM; in that of `CC(C)C(=O)NC(c1ccc(Cl)cc1)c1ccc2cccnc2c1O` (stereo not drawn), 0.873 µM. The molecule `CC(Oc1c(C2CCN(CCCCNC(=O)c3ccc(-c4ccc(Cl)cc4)cc3)CC2)ccc2c1CCCC2)C(N)=O` (stereo not drawn) had an XC50 of 0.948 µM. In the case of `O=C(/C=C/c1ccc(Cl)c(Cl)c1)NCCCCCN1CCCC(CNS(=O)(=O)c2cccc(C(F)(F)F)c2)C1` (stereo not drawn) it was 0.95 µM. In the case of `CC(=O)N(Cc1cccc(-c2ccc(CNCCc3ccccc3)cc2)c1)C1CCN(Cc2ccccc2)CC1` it was 0.691 µM.

For the molecule `COc1ccc(-c2nc(NC(=O)CS(=O)(=O)c3ccc(OC)cc3)sc2C)cc1`, the XC50 amounted to 0.302 µM. In the case of `N#CN1CC[C@@H](NS(=O)(=O)Cc2ccc(Cl)c(Cl)c2)C1` it was 0.531 µM; in that of `O=C(Nc1cccc(-c2cccc(-c3nc4cc(C(F)(F)F)ccc4[nH]3)c2)c1)c1ccoc1`, 0.277 µM. The molecule `CCOc1cc2ncnc(Nc3ccc(OCc4ccccc4Br)c(OC)c3)c2cc1OCC` returned an XC50 of 0.467 µM. `CNCc1ccc2nc(-c3coc(Cc4cc(Cl)ccc4OCC(C)C)n3)[nH]c2c1` came in with an XC50 of 0.838 µM. In the case of `Nc1c2c(nc3ccc(NC(=O)CCCc4ccccc4)cc13)CCCC2` it was 0.429 µM; in that of `CCN(c1ccccc1)S(=O)(=O)c1ccc(OC)c(NC(=O)c2cccc(C(F)(F)F)c2)c1`, 0.881 µM. In the case of `COc1ccc(CCNCCCCCCNCCCc2ccc(Cl)cc2)cc1OC` it was 0.951 µM; in that of `CC(C)C[C@@H](/C=N/N1CCNC1=O)NC(=O)[C@H](CC(C)C)NC(=O)c1ccc(OCCN2CCOCC2)cc1`, 0.19 µM.

Molecule `Cc1cc(NCCC(=O)Nc2ccccc2)nc(NCCc2ccc(F)cc2)n1` returned an XC50 of 1.13 µM.

For the molecule `CC[C@H](C)CNC(=O)c1cccc(-c2cccc(CNCC3CNCCCO3)c2)n1` (stereo partly drawn), the XC50 came to 1.08 µM. Then `CC(=O)c1cccc(NC(=O)C2c3ccccc3C(=O)N(CC(C)C)C2c2cccs2)c1` (stereo not drawn), with 0.59 µM; and `O=[N+]([O-])c1cccc(-n2nc(NCc3ccc(Cl)cc3)nc2-c2ccc(F)c(C(F)(F)F)c2)c1`, with 0.243 µM. In the case of `Cc1cc(C(=O)NC2CCN(CC3(c4ccccc4)CCCCC3)CC2)on1` it was 0.258 µM; in that of `Cc1nc(-c2nc(NCCc3cnccn3)ncc2-c2ccsc2)sc1C`, 0.881 µM. In the case of `N#CC(c1ccc(Cl)cc1)c1ccc2c(C(F)(F)F)cc(C(F)(F)F)nc2n1` (stereo not drawn) it was 1.01 µM; in that of `Cc1cc2c(NC(=O)NC3CCN(CCc4ccccc4Cl)CC3)cccc2cn1`, 0.387 µM. `Cc1[nH]c(C)c(-c2ccc(-c3ccc(C#N)cc3)nc2)c(=O)c1Br` displayed an XC50 of 0.981 µM. Regarding `CC(C)(C)c1ccc(CN2CCCCC(NC(=O)c3cc(-c4ccccc4F)cs3)C2)cc1` (stereo not drawn), the XC50 is 0.267 µM.

`O=C(CC(=O)Nc1cc(Cl)cc(Cl)c1)Nc1cc(Cl)cc(Cl)c1` returned an XC50 of 0.159 µM.
